# Measurements: patent publication US4912116A, “Propiophenone derivatives for treatment of pollakiuria (frequency urination)” (Hokuriku Pharmaceutical Co., Ltd., priority 1986, dated 1990)
# Like-named read-outs stand apart in the source and are kept apart here.
# System: cystometrogram (time to micturition)
# Assay: Effects on the cystometrogram (Cat)
# Assay type: in vivo, Mongrel adult cats
# Details: cats; for ED (2 min delay of micturition): Felis catus, read-out: ED2 (dose which delayed time to micturition by 2 min.)
# Experimental: statistical analysis: Each data of Experiment 1-6 represents the mean±S.E. statistical analysis of the data was performed using student's t-test.
# Mongrel adult cats weighing about 3 kg (in case of intraduodenal administration, fasted 24 hours) were anesthetized with urethane (500 mg/kg, i.p.) and alpha-chloralose (50 mg/kg, i.p.) and fixed on their back.
# After midline incision of the abdomen, the ureters were ligated and polyethylene tubes were inserted into the kidney side and urinary bladder side, urine was led out of the body from the kidney side, and warm saline was infused using a continuous infusion pump from the urinary bladder side.
# Then, a catheter was inserted into the bladder dome and connected to a pressure transducer Intravesical pressure was recorded on a recorder.
# The infusion rate of saline was changed (0.7-6.6 ml/min) so as to induce the time to micturition from saline infusion at about five minutes.
# Each of delayed time of micturition was evaluated. In case of intravenous administration, the drug was administered through a cannula inserted into the right femoral vein at 30 seconds before saline infusion.
# In case of intraduodenal administration, the drug was administrated through a tube inserted into the duodenum by way of mouth at the time of saline infusion, and the time to micturition was measured at 15 min. intervals until 90 min.
structure (smiles),measurement,setting,value
CCc1ccc(C(=O)C(C)CN2CCCC2)cc1 (centres unmarked) [Compound 1],Delayed time to micturition,"1 mg/kg, i.v., mean ± S.E., saline 6.6 ± 10.2",-19.2 ± 6.6 s
same,Delayed time to micturition,"4 mg/kg, i.v., mean ± S.E., saline 6.6 ± 10.2",70.8 ± 27.0 s
same,Delayed time to micturition,"8 mg/kg, i.v., mean ± S.E., saline 6.6 ± 10.2",170.4 ± 48.0 s
same,Delayed time to micturition,"12.5 mg/kg, i.d., after 30 min., water 22.2 ± 16.2",49.8 ± 8.4 s
same,Delayed time to micturition,"25.0 mg/kg, i.d., after 30 min., ** p < 0.01 vs control, water 22.2 ± 16.2",105.0 ± 10.8 s
same,Delayed time to micturition,"50.0 mg/kg, i.d., after 30 min., water 22.2 ± 16.2",128.4 ± 37.8 s
same,ED (2 min delay of micturition),"intraduodenal, 0.5 h, i.d., after 30 min.",39 mg/kg
same,ED (2 min delay of micturition),"iv, 2 min, i.v.",5.6 mg/kg
